pEC50: −log10 of the molar value.
Legend:
[1] = system: HCV type 1b replicon (Huh-7 luc/neo cells); test: HCV replicon assay, stable transfection (Huh-Luc, luciferase); format: cell-based; conditions: Hepatitis C virus, Huh-7, 72 h, three days incubation, average of all tests
Excerpt: The compounds of formula (I) were examined for inhibitory activity in the HCV replicon. This cellular assay is based on a bicistronic expression construct, as described by Lohmann et al. (Science (1999) 285: 110-113; Journal of Virology (2003) 77: 3007-3019) with modifications described by Krieger et al. (Journal of Virology (2001) 75: 4614-4624), and Lohmann et al. (Journal of Virology (2003) 77: 3007-3019) for genotype 1b and by Yi et al. (Journal of Virology (2004) 78: 7904-7915) for genotype 1a, in a multi-target screening strategy.
The method was as follows. The assay utilized the stably transfected cell line Huh-7 luc/neo (hereafter referred to as Huh-Luc). This cell line harbors an RNA encoding a bicistronic expression construct comprising the wild type NS3-NS5B regions of HCV type 1b translated from an Internal Ribosome Entry Site (IRES) from encephalomyocarditis virus (EMCV), preceded by a reporter portion (FfL-luciferase), and a selectable marker portion (neoR, neomycine phosphotransferase). The construct is flanked by 5′ and 3′ NTRs (non-translated regions) from HCV type 1b. Continued culture of the replicon cells in the presence of G418 (neoR) is dependent on the replication of the HCV RNA. The stably transfected replicon cells that replicate HCV RNA autonomously and to high levels, encoding inter alia luciferase, were used for screening the antiviral compounds.
The replicon cells were plated in 384 well plates in the presence of the test and control compounds which were added in various concentrations. Following an incubation of three days, HCV replication was measured by assaying luciferase activity (using standard luciferase assay substrates and reagents and a Perkin Elmer ViewLux™ ultraHTS microplate imager). Replicon cells in the control cultures have high luciferase expression in the absence of any inhibitor. The inhibitory activity of the compound was monitored on the Huh-Luc cells, enabling a dose-response curve for each test compound. EC50 values were then calculated, which represent the amount of compound required to decrease the level of detected luciferase activity by 50%, or more specifically, to reduce the ability of the genetically linked HCV replicon RNA to replicate.
Where a compound of formula (I) was tested more than once in the replicon assay, the average of all test results is given in this Table 2.

[2] = system: HCV genotype 1b Con1 replicon (Huh-7 lunet cells); test: HCV replicon assay, transient transfection, genotype 1b; format: cell-based; conditions: Hepatitis C virus, 48 h, genotype 1b Con1, two days incubation, luciferase
Excerpt: (§1) In a transient set-up, a Huh-7 lunet hepatoma cell line was transiently transfected with an autonomously replicating RNA encoding a bi-cistronic expression construct. This construct comprises a firefly luciferase reporter gene preceding the NS3-NS5B subgenomic region of HCV (genotype 1a H77 or 1b Con1). Translation of the HCV subgenomic region is mediated by an internal ribosome entry site of encephalomyocarditis virus. The construct is furthermore flanked by 5′ and 3′ untranslated regions of HCV (genotype 1a H77 or 1b Con 1, respectively), which allow for replication of the RNA.
(§2) Cells were plated in 384 well plates in the presence of test and control compounds, which were added in various concentrations. Following an incubation of two days, replication of the HCV subgenomic replicon RNA was measured by assaying luciferase activity (using standard luciferase assay substrates and reagents and a Perkin Elmer ViewLux™ ultraHTS microplate imager). HCV subgenomic replicon containing cells in the control cultures have high luciferase expression in the absence of any inhibitor. The inhibitory activity of the compound was monitored, enabling a dose-response curve for each test compound. EC50 values were then calculated, which represent the amount of compound required to decrease the level of detected luciferase activity by 50%, or more specifically, to reduce the ability of the genetically linked HCV subgenomic RNA to replicate.
(§3) Where a compound of formula (I) was tested more than once in the transient replicon assay, the average of all test results is given in Table 3.

[3] = system: HCV genotype 1a H77 replicon (Huh-7 lunet cells); test: HCV replicon assay, transient transfection, genotype 1a; format: cell-based; conditions: Hepatitis C virus, 48 h, genotype 1a H77, two days incubation, luciferase
Excerpt: as §1, §2, §3

[4] = Counterscreen MT4-LTR-Luc; format: cell-based; conditions: human
Excerpt: (§4) Counterscreen cell lines included a Huh-7 hepatoma cell line containing a human cytomegalovirus major immediate-early promoter-Luc construct (Huh7-CMV-Luc) and an MT4 T-cell line containing a long terminal repeat-Luc reporter (MT4-LTR-Luc).

[5] = Counterscreen Huh7-CMV-Luc; format: cell-based; conditions: human
Excerpt: as §4

[6] = system: HCV genotype 1b replicon NS5A L28T; test: Transient HCV 1b replicon, NS5A mutant L28T; format: cell-based; conditions: Hepatitis C virus, read-out: EC50 L28T
Excerpt: as §1
(§5) In addition to the wild-type constructs, site-directed mutations were introduced into the transient HCV genotype 1b replicon in the gene encoding for the non-structural protein 5A (NS5A). More precisely, amino acid residues 28, 30, 31 and 93 in NS5A were independently altered.
as §2

[7] = system: HCV genotype 1b replicon NS5A R30H; test: Transient HCV 1b replicon, NS5A mutant R30H; format: cell-based; conditions: Hepatitis C virus, read-out: EC50 R30H
Excerpt: as §1, §5, §2

[8] = system: HCV genotype 1b replicon NS5A L31F; test: Transient HCV 1b replicon, NS5A mutant L31F; format: cell-based; conditions: Hepatitis C virus, read-out: EC50 L31F
Excerpt: as §1, §5, §2

[9] = system: HCV genotype 1b replicon NS5A L31M; test: Transient HCV 1b replicon, NS5A mutant L31M; format: cell-based; conditions: Hepatitis C virus, read-out: EC50 L31M
Excerpt: as §1, §5, §2

[10] = system: HCV genotype 1b replicon NS5A L31V; test: Transient HCV 1b replicon, NS5A mutant L31V; format: cell-based; conditions: Hepatitis C virus, read-out: EC50 L31V
Excerpt: as §1, §5, §2

[11] = system: HCV genotype 1b replicon NS5A Y93H; test: Transient HCV 1b replicon, NS5A mutant Y93H; format: cell-based; conditions: Hepatitis C virus, read-out: EC50 Y93H
Excerpt: as §1, §5, §2

[12] = system: HCV genotype 1b replicon NS5A Y93C; test: Transient HCV 1b replicon, NS5A mutant Y93C; format: cell-based; conditions: Hepatitis C virus, read-out: EC50 Y93C
Excerpt: as §1, §5, §2

[13] = Pharmacokinetic analysis after single oral administration, liver concentration; format: in vivo; conditions: male Sprague-Dawley rats, 10 mg/kg oral, solution in PEG400
Method: Compounds were dosed orally as a solution in PEG400 to male Sprague-Dawley rats at a dose level of 10 mg/kg. At serial time points, after dosing, the animals were sacrificed and liver samples collected. All samples were analyzed using a qualified research LC-MS/MS method to determine the concentration of the tested compounds in liver. Non-compartmental analysis using the lin/log trapezoidal rule was performed using WinNonlin™ Professional (Version 5.2.1).

| Compound | pEC50 [1] | pEC50 [2] | pEC50 [3] | CC50 [4] [nM] | CC50 [5] [nM] | pEC50 [6] | pEC50 [7] | pEC50 [8] | pEC50 [9] | pEC50 [10] | pEC50 [11] | pEC50 [12] | Liver AUC [13] [ng·h/g] |
| --- | --- | --- | --- | --- | --- | --- | --- | --- | --- | --- | --- | --- | --- |
| CC[C@H](C)[C@H](NC(=O)OC)C(=O)N1CCC[C@H]1c1ncc(-c2ccc3cc(-c4ccc5[nH]c([C@@H]6CCCN6C(=O)[C@@H](NC(=O)OC)[C@@H](C)OC)nc5c4)ccc3c2)[nH]1 [Compound 17] | 11.30 | 11.30 | 10.31 | 9300 | 11100 | 10.43 | 10.44 | 11.30 | 10.60 | 10.43 | 10.47 | 11.52 | 4213 |
| CC[C@H](C)[C@H](NC(=O)OC)C(=O)N1CCC[C@H]1c1ncc(-c2ccc3cc(-c4ccc5[nH]c([C@@H]6CCCN6C(=O)[C@@H](NC(=O)OC)C(C)C)nc5c4)ccc3c2)[nH]1 [Compound 16] | 11.52 | 11.52 | 10.01 | > 984 | > 984 | 9.82 | 10.15 | 10.77 | 10.03 | 9.39 | 9.46 | > 10.89 | 12630 |
| COC(=O)N[C@H](C(=O)N1CCC[C@H]1c1nc2ccc(-c3ccc4cc(-c5cnc([C@@H]6CCCN6C(=O)[C@@H](NC(=O)OC)[C@@H](C)OC)[nH]5)ccc4c3)cc2[nH]1)C(C)C [Compound 11] | 11.22 | 10.92 | 10.32 | > 984 | > 984 | 9.93 | 10.30 | 10.68 | 10.06 | 9.85 | 9.78 | > 10.89 | 7928 |
| CC[C@H](C)[C@H](NC(=O)OC)C(=O)N1CCC[C@H]1c1nc2ccc(-c3ccc4cc(-c5cnc([C@@H]6CCCN6C(=O)[C@@H](NC(=O)OC)C(C)C)[nH]5)ccc4c3)cc2[nH]1 [Compound 13] | 11.70 | 11.70 | 10.29 | > 984 | > 984 | 9.96 | 10.57 | > 10.89 | 10.28 | 9.85 | 9.67 | > 10.89 | 51330 |
| COC(=O)N[C@H](C(=O)N1CCC[C@H]1c1ncc(-c2ccc3cc(-c4ccc5nc([C@@H]6CCCN6C(=O)[C@@H](NC(=O)OC)[C@@H](C)OC)[nH]c5c4)ccc3c2)[nH]1)C(C)C [Compound 9] | 11.15 | 11.15 | 10.52 | > 984 | > 984 | 10.09 | 10.35 | > 10.77 | 10.14 | 10.07 | 10.38 | > 10.89 | 6202 |
| COC(=O)N[C@H](C(=O)N1CCC[C@H]1c1ncc(-c2ccc3cc(-c4ccc5nc([C@@H]6CCCN6C(=O)[C@@H](NC(=O)OC)C(C)C)[nH]c5c4)ccc3c2)[nH]1)C(C)C [Compound 3] | 11.15 | 11.10 | 10.29 | 5820 | 7640 | 9.64 | 10.14 | 10.49 | 9.74 | 9.30 | 9.33 | 10.92 | 23157 |
| CC[C@H](C)[C@H](NC(=O)OC)C(=O)N1CCC[C@H]1c1nc2cc(-c3ccc4cc(-c5cnc([C@@H]6CCCN6C(=O)[C@@H](NC(=O)OC)[C@@H](C)OC)[nH]5)ccc4c3)ccc2[nH]1 [Compound 18] | 11.52 | 11.40 | 10.74 | 9680 | 8680 | 10.39 | 10.41 | 11.30 | 10.27 | 10.28 | 10.10 | 11.52 | 14091 |

Reference: patent US9427428B2, “Benzimidazole-imidazole derivatives” (Janssen Sciences Ireland UC, priority 2009, dated 2016)
